Measured values reported in patent publication EP0804445B1, “METALLOCENIC […] DERIVATIVES, METHODS FOR THEIR PREPARATION AND PHARMACEUTICAL COMPOSITIONS CONTAINING SAME” (Modelisation et Mise au Point de Molecules Medicanales - …, priority 1994, dated 1996).

Experiments:
[1] = tested on: lignée MCF-7 ATCC HTB; test: MTT cytotoxicity test (cell viability); type: cell-based, humaines; conditions: MCF7 ATCC cells; 5 days incubation with compound; MTT readout at 550 nm; calculated from points of Figures 1A, 1B and 2 between 5.10^-7 and 10^-5 moles/l; read-out: IC50 (µmole) MCF7 ATCC
Source text: (§1) L'évaluation de la cytotoxicité des isomères "trans" et "cis" du 1-[4-(2-diméthylaminoéthoxy) phényl]-1-(4-hydroxyphényl)-2-ferrocényl-1-butène a fait l'objet de tests sur des lignées de cellules humaines dérivées d'une effusion pleurale d'un adénocarcinome mammaire (lignée MCF-7 ATCC HTB) ainsi que de l'un de ses variants (lignée MCF-7P).
(§2) Ces cellules ont été préalablement cultivées dans du milieu Dulbecco MEM additionné de 10% de sérum de veau foetal et en atmosphère humide (90% d'humidité relative) comprenant 5% de CO2. En phase exponentielle de croissance, ces cellules ont été trypsinées et repiquées dans des plaques de 24 puits de 1 ml à raison de 2.10^5 cellules par puits.
(§3) Après 3 jours d'incubation, les composés à tester ont été ajoutés aux doses appropriées et les plaques ont été mises à incuber pendant 5 jours.
(§4) A l'issue de cette incubation, la viabilité cellulaire des cultures a été déterminée à l'aide du test dit "MTT" consistant à ajouter dans chaque puits 20 µl d'une solution contenant 5 mg de bromure de (diméthyl-4,5-thiazol-2-yl)diphényl-2,5-tétrazolium (MTT) dans 1 ml de tampon PBS, et à laisser incuber les plaques pendant 1 heure à 37°C dans des conditions atmosphériques identiques à celles définies ci-dessus. Le MTT est métabolisé dans les cellules vivantes en un composé bleu insoluble (formazan).
(§5) A l'issue de cette incubation, les puits sont lavés à l'aide de PBS pour éliminer le MTT et les cristaux résiduels de formazan sont repris dans 1 ml de DMSO. La concentration en formazan pour chaque puits est lue par photométrie à une longueur d'onde de 550 nm et comparée à un témoin correspondant à du milieu incubé en présence de MTT mais en l'absence de cellules.

[2] = tested on: lignée MCF-7P; test: MTT cytotoxicity test (cell viability); type: cell-based, humaines; conditions: MCF7-P variant cells; 5 days incubation with compound; MTT readout at 550 nm; calculated from points of Figures 1A, 1B and 2 between 5.10^-7 and 10^-5 moles/l; read-out: IC50 (µmole) MCF7-P
Source text: as §1, §2, §3, §4, §5

SMILES | IC50 [1] | IC50 [2]
CCC(=C(c1ccc(O)cc1)c1ccc(OCCN(C)C)cc1)[c-]1cccc1.[Fe+2].c1cc[cH-]c1 [Dérivé "cis", 1-[4-(2-diméthylaminoéthoxy)phényl]-1-(4-hydroxyphényl)-2-ferrocényl-1-butène] | 3.4 µM | 5.6 µM
CCC(=C(c1ccc(O)cc1)c1ccc(OCCN(C)C)cc1)[c-]1cccc1.[Fe+2].c1cc[cH-]c1 [Dérivé "trans", 1-[4-(2-diméthylaminoéthoxy)phényl]-1-(4-hydroxyphényl)-2-ferrocényl-1-butène] | 4.9 µM | 2 µM
